Laboratory results as given in the supplement of paper PMC10307832.

How the values were obtained:
Assay in all cases: relative viability (nuclei count vs DMSO), 5 days (fraction); higher = more cells survive
Carboplatin + Trametinib = compound: C1CC(C1)(C(=O)O)C(=O)O.[NH2-].[NH2-].[Pt+2] [Carboplatin] + CC(=O)Nc1cccc(-n2c(=O)n(C3CC3)c(=O)c3c(Nc4ccc(I)cc4F)n(C)c(=O)c(C)c32)c1 [Trametinib] (partner 0.02 µM)
In short: (§1)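 Lung cancer cell lines, seeded in 1536-well plates, were treated the following day by pin tool with a single drug or with five library-drug doses (not always all listed) in √10 steps on top of a fixed anchor-drug dose. Cells were fixed and nuclei stained in one step after 5 days, and nuclei were counted. Relative viability is the nuclei count for treated wells divided by that for vehicle wells, reported as medians of duplicate plates.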

MLN4924 + Linsitinib = compound: NS(=O)(=O)OC[C@@H]1C[C@@H](n2ccc3c(N[C@H]4CCc5ccccc54)ncnc32)C[C@@H]1O [MLN4924] + C[C@]1(O)C[C@@H](c2nc(-c3ccc4ccc(-c5ccccc5)nc4c3)c3c(N)nccn32)C1 [Linsitinib] (partner 1 µM)
In short: as §1

MLN4924 + Tozasertib = compound: NS(=O)(=O)OC[C@@H]1C[C@@H](n2ccc3c(N[C@H]4CCc5ccccc54)ncnc32)C[C@@H]1O [MLN4924] + Cc1cc(Nc2cc(N3CCN(C)CC3)nc(Sc3ccc(NC(=O)C4CC4)cc3)n2)n[nH]1 [Tozasertib] (partner 0.1 µM)
In short: as §1

Carboplatin + OSI-027 = compound: C1CC(C1)(C(=O)O)C(=O)O.[NH2-].[NH2-].[Pt+2] [Carboplatin] + COc1cccc2cc(-c3nc([C@H]4CC[C@H](C(=O)O)CC4)n4ncnc(N)c34)[nH]c12 [OSI-027] (partner 0.5 µM)
In short: as §1

Row | Cell Line | relative viability (Carboplatin + Trametinib; first compound 0.08 µM) | relative viability (Carboplatin + Trametinib; first compound 0.253 µM) | relative viability (Carboplatin + Trametinib; first compound 0.8 µM) | relative viability (Carboplatin + Trametinib; first compound 2.53 µM) | relative viability (Carboplatin + Trametinib; first compound 8 µM) | relative viability (MLN4924 + Linsitinib; first compound 0.04 µM) | relative viability (MLN4924 + Linsitinib; first compound 0.1265 µM) | relative viability (MLN4924 + Linsitinib; first compound 0.4 µM) | relative viability (MLN4924 + Linsitinib; first compound 1.265 µM) | relative viability (MLN4924 + Linsitinib; first compound 4 µM) | relative viability (MLN4924 + Tozasertib; first compound 0.04 µM) | relative viability (MLN4924 + Tozasertib; first compound 0.1265 µM) | relative viability (MLN4924 + Tozasertib; first compound 0.4 µM) | relative viability (MLN4924 + Tozasertib; first compound 1.265 µM) | relative viability (MLN4924 + Tozasertib; first compound 4 µM) | relative viability (Carboplatin + OSI-027; first compound 0.08 µM) | relative viability (Carboplatin + OSI-027; first compound 0.253 µM) | relative viability (Carboplatin + OSI-027; first compound 0.8 µM) | relative viability (Carboplatin + OSI-027; first compound 2.53 µM) | relative viability (Carboplatin + OSI-027; first compound 8 µM)
1 | HCC-78 | 0.828 | 0.587 | 0.653 | 0.674 | 0.73 | 0.556 | 0.355 | 0.628 | 0.135 | 0.147 | 0.564 | 0.458 | 0.453 | 0.172 | 0.141 | 0.433 | 0.368 | 0.341 | 0.379 | 0.375
2 | HCC-366 | 0.406 | 0.43 | 0.372 | 0.269 | 0.179 | 0.838 | 0.933 | 0.513 | 0.0247 | 0.0197 | 0.151 | 0.173 | 0.159 | 0.0404 | 0.0333 | 1.07 | 0.979 | 0.911 | 0.955 | 0.486
3 | HCC-827 | 0.579 | 0.517 | 0.557 | 0.497 | 0.57 | 0.801 | 0.527 | 0.468 | 0.228 | 0.211 | 0.415 | 0.347 | 0.408 | 0.165 | 0.167 | 0.774 | 0.851 | 0.783 | 0.732 | 0.655
4 | HOP-62 | 0.393 | 0.359 | 0.385 | 0.393 | 0.363 | 0.433 | 0.272 | 0.151 | 0.0627 | 0.0635 | 0.359 | 0.198 | 0.0852 | 0.049 | 0.0903 | 0.905 | 0.808 | 0.823 | 0.777 | 0.726
5 | IA-LM | – | – | – | – | – | 0.252 | 0.197 | 0.155 | 0.0583 | 0.0889 | – | – | – | – | – | – | – | – | – | –
6 | LC-2-ad | 0.91 | 0.934 | 0.923 | 0.882 | 0.8 | 0.854 | 0.533 | 0.281 | 0.162 | 0.13 | 0.434 | 0.344 | 0.362 | 0.218 | 0.198 | 0.877 | 0.825 | 0.778 | 0.696 | 0.404
7 | LCLC-97TM1 | 0.236 | 0.216 | 0.212 | 0.228 | 0.26 | 0.191 | 0.23 | 0.156 | 0.103 | 0.131 | 0.222 | 0.158 | 0.172 | 0.121 | 0.112 | 0.481 | 0.615 | 0.594 | 0.554 | 0.474
8 | LCLC-103H | 0.703 | 0.703 | 0.68 | 0.689 | 0.654 | 1.33 | 1.21 | 1.2 | 0.316 | 0.355 | 0.493 | 0.533 | 0.364 | 0.168 | 0.137 | 0.456 | 0.544 | 0.5 | 0.468 | 0.482
9 | LK-2 | 0.772 | 0.973 | 0.624 | 0.58 | 0.846 | 0.497 | 0.46 | 0.289 | 0.198 | 0.203 | 0.175 | 0.182 | 0.189 | 0.209 | 0.174 | 0.262 | 0.191 | 0.21 | 0.184 | 0.226
10 | LOU-NH91 | 0.786 | 0.792 | 0.763 | 0.803 | 0.775 | 1.01 | 1.14 | 0.961 | 0.561 | 0.472 | 0.641 | 0.689 | 0.502 | 0.336 | 0.342 | 0.811 | 0.72 | 0.75 | 0.761 | 0.73
11 | NCI-H522 | 0.724 | 0.876 | 0.632 | 0.781 | 0.762 | – | – | – | – | – | 0.503 | 0.502 | 0.458 | 0.363 | 0.304 | 0.741 | 0.711 | 0.567 | 0.685 | 0.7
12 | NCI-H1299 | – | – | – | – | – | 0.903 | 0.768 | 0.441 | 0.189 | 0.186 | – | – | – | – | – | – | – | – | – | –
13 | NCI-H1563 | – | – | – | – | – | 1.73 | 1.18 | 0.753 | 0.606 | 0.6 | – | – | – | – | – | 0.821 | 0.751 | 0.773 | 0.754 | 0.775
14 | NCI-H1623 | – | – | – | – | – | – | – | – | – | – | 0.42 | 0.372 | 0.398 | 0.203 | 0.195 | 0.481 | 0.404 | 0.455 | 0.41 | 0.385
15 | NCI-H1648 | 0.527 | 0.567 | 0.45 | 0.382 | 0.473 | – | – | – | – | – | 0.417 | 0.164 | 0.247 | 0.203 | 0.279 | 0.238 | 0.258 | 0.247 | – | 0.265
16 | NCI-H1650 | 0.623 | 0.585 | 0.573 | 0.522 | 0.389 | – | – | – | – | – | 0.319 | 0.299 | 0.341 | 0.203 | 0.164 | 0.736 | 0.593 | 0.653 | 0.574 | 0.341
17 | NCI-H1703 | – | – | – | – | – | 0.235 | 0.241 | 0.157 | 0.111 | 0.146 | – | – | – | – | – | – | – | – | – | –
18 | NCI-H1792 | 0.514 | 0.395 | 0.354 | 0.361 | 0.231 | 0.548 | 0.664 | 0.804 | 0.184 | 0.124 | – | – | – | – | – | 0.724 | 0.691 | 0.824 | 0.679 | 0.566
19 | NCI-H2170 | 0.911 | 1.02 | 0.966 | 0.814 | 0.717 | – | – | – | – | – | 0.722 | 0.407 | 0.325 | 0.151 | 0.155 | 0.715 | 0.723 | 0.86 | 0.783 | 0.605
20 | NCI-H2342 | 0.825 | 0.891 | 0.903 | 0.924 | 0.81 | – | – | – | – | – | 0.416 | 0.455 | 0.533 | 0.445 | 0.408 | 0.785 | 0.731 | 0.717 | 0.534 | 0.608
21 | SW 900 | 0.794 | 0.904 | 1.07 | 0.7 | 0.759 | – | – | – | – | – | 0.625 | 0.474 | 0.435 | 0.171 | 0.114 | 0.726 | 0.533 | 0.49 | 0.465 | 0.412
